The results in this text go back to patent US8822449B2, “Substituted aminoindanes and analogs thereof, and the pharmaceutical use thereof” (Sanofi, priority 2008, dated 2014).

The target of the assay is T1, sodium-proton exchanger of subtype 3 (NHE3) (Homo sapiens, UniProt P48764).
T1 construct: expressed in transfected cells
T1 sequence (P48764 26-834): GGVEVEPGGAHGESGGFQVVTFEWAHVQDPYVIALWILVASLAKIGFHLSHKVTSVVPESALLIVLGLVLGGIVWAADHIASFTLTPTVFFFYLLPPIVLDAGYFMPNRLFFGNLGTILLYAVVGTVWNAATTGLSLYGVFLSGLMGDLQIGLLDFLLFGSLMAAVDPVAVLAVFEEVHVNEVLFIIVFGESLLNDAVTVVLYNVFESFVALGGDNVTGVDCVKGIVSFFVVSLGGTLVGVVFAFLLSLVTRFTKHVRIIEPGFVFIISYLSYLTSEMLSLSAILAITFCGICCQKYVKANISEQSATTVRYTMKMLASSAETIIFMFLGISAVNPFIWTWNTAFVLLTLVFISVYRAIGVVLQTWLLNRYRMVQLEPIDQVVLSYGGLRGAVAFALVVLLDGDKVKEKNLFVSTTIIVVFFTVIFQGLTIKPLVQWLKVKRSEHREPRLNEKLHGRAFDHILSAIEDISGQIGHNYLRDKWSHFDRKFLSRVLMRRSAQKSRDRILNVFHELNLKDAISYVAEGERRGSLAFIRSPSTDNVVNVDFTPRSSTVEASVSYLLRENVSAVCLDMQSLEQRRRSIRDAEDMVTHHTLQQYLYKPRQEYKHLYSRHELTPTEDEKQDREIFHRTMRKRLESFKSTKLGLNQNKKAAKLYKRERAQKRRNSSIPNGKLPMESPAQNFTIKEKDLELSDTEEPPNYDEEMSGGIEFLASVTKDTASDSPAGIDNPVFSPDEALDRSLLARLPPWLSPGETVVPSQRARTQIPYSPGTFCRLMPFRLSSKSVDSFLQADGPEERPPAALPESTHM
Nature of the assay: Recovery of intracellular pH (pHi) after acidification in LAP1 cells stably expressing NHE3 (BCECF fluorescence, FLIPR). Particulars: LAP1 cells stably expressing NHE3; pH recovery after acidification; range 1 is % inhibition at 10 μM; read-out: Activity range (inhibitory effect on NHE3). The class given is cell-based.

Protocol: In this assay, the recovery of the intracellular pH (pHi) of LAP1 cells which stably express the sodium-proton exchanger of subtype 3 (NHE3) after acidification was determined. The recovery occurs even under bicarbonate-free conditions with functional NHE3. To this end, the pHi was determined using the pH-sensitive fluorescent dye BCECF (Molecular Probes, Eugene, Oreg., USA, employing the precursors BCECF-AM). The cells were initially incubated with BCECF (5 μM BCECF-AM) in NH4Cl buffer (NH4Cl buffer: 115 mM cholineCl, 20 mM NH4Cl, 5 mM KCl, 1 mM CaCl2, 1 mM MgCl2, 20 mM Hepes, 5 mM glucose, a pH of 7.4 was adjusted with 1 M KOH). The intracellular acidification was induced by washing the cells incubated in NH4Cl buffer with NH4Cl-free buffer (133.8 mM choline chloride, 4.7 mM KCl, 1.25 mM CaCl2, 1.25 mM MgCl2, 0.97 mM K2HPO4, 0.23 mM KH2PO4, 5 mM Hepes, 5 mM glucose, a pH of 7.4 was adjusted with 1 M KOH). After the washing step, 90 μl of the NH4Cl-free buffer were left on the cells. The pH recovery was started by adding 90 μl of Na^+-containing buffer (133.8 mM NaCl, 4.7 mM KCl, 1.25 mM CaCl2, 1.25 mM MgCl2, 0.97 mM Na2HPO4, 0.23 mM NaH2PO4, 10 mM Hepes, 5 mM glucose, a pH of 7.4 was adjusted with 1 M NaOH) in a measuring instrument (FLIPR, “Fluorometric Imaging Plate Reader”, Molecular Devices, Sunnyvale, Calif., USA). The BCECF fluorescence was determined with an excitation wavelength of 498 nm and the FLIPR emission filter 1 (bandpass from 510 to 570 nm). The subsequent changes in fluorescence as a measure of pH recovery were recorded for two minutes. To calculate the NHE3-inhibitory power of the tested substances, the cells were initially investigated in buffers with which complete or absolutely no pH recovery took place. For complete pH recovery (100%), the cells were incubated in Na^+-containing buffer (see above), and to determine the 0% value were incubated in Na^+-free buffer (see above). The substances to be tested were made up in Na^+-containing buffer. The recovery of the intracellular pH at each tested concentration of a substance was expressed as percent of the maximum recovery.
The IC50 of the respective substance for NHE3 was calculated from the percentages of pH recovery using the program XLFit (idbs, Surrey, UK).

For the compound `NCC1CCN([C@@H]2Cc3ccccc3[C@H]2Oc2ccc3c(c2)OCO3)C1` (mixture of isomers) [Example 621, C-{1-[rac-trans-(1,2)-1-(benzo[1,3]dioxol-5-yloxy)indan-2-yl]pyrrolidin-3-yl}methylamine], the IC50 was 1000 to 10000 nM.

As for `CC(=O)Nc1cccc(O[C@H]2c3cc(F)cc(Cl)c3C[C@@H]2N2CCNCC2)c1` (racemic) [Example 650, N-[3-(rac-trans-(1,2)-4-chloro-6-fluoro-2-piperazin-1-ylindan-1-yloxy)phenyl]acetamide], the IC50 was under 1000 nM.

`Cc1ccc(O[C@H]2c3ccccc3C[C@@H]2N2CCCC2)c(-c2c(C)noc2C)c1` [Example 408, 3,5-dimethyl-4-[5-methyl-2-(trans-(1S,2S)-2-pyrrolidin-1-ylindan-1-yloxy)phenyl]isoxazole]: the inhibition at 10 µM lay in the range of 20 to 50%.

In the case of `Nc1cccc(O[C@@H]2c3ccccc3C[C@H]2N2CCCC2)c1` (racemic) [Example 401, 3-(rac-trans-(1,2)-2-pyrrolidin-1-ylindan-1-yloxy)phenylamine], the IC50 was in the range of 1000 to 10000 nM.

`CC(=O)Nc1cccc(O[C@H]2c3ccccc3C[C@@H]2N2CCCCCC2)c1` (racemic) [Example 636, N-[3-(rac-trans-(1,2)-2-azepan-1-ylindan-1-yloxy)phenyl]acetamide]: the IC50 is under 1000 nM.

On to `Cc1ccc(O[C@H]2c3ccccc3CC[C@@H]2N2CCC[C@@H](N)C2)c(Cl)c1` (racemic) [Example 38, (R)-1-[rac-trans-(1,2)-1-(2-chloro-4-methylphenoxy)-1,2,3,4-tetrahydronaphthalen-2-yl]piperidin-3-ylamine], for which the inhibition at 10 µM lay within 20 to 50%.

Turning to `CC(=O)Nc1cccc(O[C@H]2c3ccccc3CC[C@@H]2N2CCC[C@H](N)C2)c1` (racemic) [Example 684, N-{3-[rac-trans-(1,2)-2-((S)-3-aminopiperidin-1-yl)-1,2,3,4-tetrahydronaphthalen-1-yloxy]phenyl}acetamide], the inhibition at 10 µM fell in the range of 20 to 50%.

`CC(=O)Nc1cccc(O[C@H]2c3cc(Cl)cc(Cl)c3C[C@@H]2N2CCOCC2)c1` (racemic) [Example 646, N-[3-(rac-trans-(1,2)-4,6-dichloro-2-morpholin-4-ylindan-1-yloxy)phenyl]acetamide]: the inhibition at 10 µM was 20 to 50%.

For `O=S(=O)(c1ccc(O[C@H]2c3cc(Cl)cc(Cl)c3C[C@@H]2N2CC[C@@H](O)C2)cc1)N1CCOCC1` [Example 744, (R)-1-{trans-(1S,2S)-4,6-Dichloro-1-[4-(morpholine-4-sulfonyl)-phenoxy]-indan-2-yl}-pyrrolidin-3-ol], the IC50 fell in the range of 1000 to 10000 nM.

As to `CC(=O)Nc1cccc(O[C@H]2c3ccccc3C[C@@H]2N2CCSCC2)c1` (racemic) [Example 643, N-[3-(rac-trans-(1,2)-2-thiomorpholin-4-ylindan-1-yloxy)phenyl]acetamide], the inhibition at 10 µM lay within 20 to 50%.

As to `CCN(CC)[C@@H]1Cc2ccccc2[C@H]1Oc1ccc(CCOC)cc1` (racemic) [Example 628, Diethyl-{rac-trans-(1,2)-1-[4-(2-methoxyethyl)phenoxy]indan-2-yl}amine], the IC50 lay within 1000 to 10000 nM.

In the case of `Cc1nnc(C)n1-c1ccc(O[C@H]2c3cc(Cl)c(Cl)cc3C[C@@H]2N2CCCC2)cc1` (racemic) [Example 498, 4-[4-(rac-trans-(1,2)-5,6-dichloro-2-pyrrolidin-1-ylindan-1-yloxy)phenyl]-3,5-dimethyl-4H-[1,2,4]triazole], the inhibition at 10 µM lay in the range of 20 to 50%.

`Cn1ccn(-c2ccc(F)c(O[C@H]3c4cc(Cl)cc(F)c4C[C@@H]3NC3CCCC3)c2)c1=O` [Example 756, 1-[3-(trans-(1S,2S)-6-Chloro-2-cyclopentylamino-4-fluoro-indan-1-yloxy)-4-fluoro-phenyl]-3-methyl-1,3-dihydro-imidazol-2-one]: the IC50 fell in the range of 1000 to 10000 nM.

With `Cc1cn(-c2ccc(O[C@H]3c4cc(Cl)cc(F)c4C[C@@H]3N3CC[C@@H](O)C3)c(F)c2)c(C)n1` [Example 738, (R)-1-{trans-(1S,2S)-6-Chloro-1-[4-(2,4-dimethyl-imidazol-1-yl)-2-fluoro-phenoxy]-4-fluoro-indan-2-yl}-pyrrolidin-3-ol], the IC50 is under 1000 nM.

As to `Cc1cc(O[C@@H]2c3cc(Cl)cc(F)c3C[C@H]2N2CCC[C@@H](N)C2)ccc1S(=O)(=O)C(F)(F)F` (racemic) [Example 92, (R)-1-[rac-trans-(1,2)-6-chloro-4-fluoro-1-(3-methyl-4-trifluoromethanesulfonylphenoxy)indan-2-yl]piperidin-3-ylamine], the inhibition at 10 µM fell in the range of 20 to 50%.

With `Cc1nnc(C)n1-c1ccc(O[C@H]2c3cc(Cl)cc(Cl)c3C[C@@H]2N(C)CCO)c(F)c1` [Example 704, 2-({trans-(1S,2S)-4,6-Dichloro-1-[4-(3,5-dimethyl-[1,2,4]triazol-4-yl)-2-fluoro-phenoxy]-indan-2-yl}-methyl-amino)-ethanol], the IC50 is under 1000 nM.

As to `CN(C)C(=O)Cc1ccc(O[C@H]2c3ccccc3CC[C@@H]2N2CCC[C@H](N)C2)cc1` (racemic) [Example 382, 2-{4-[rac-trans-(1,2)-2-((S)-3-aminopiperidin-1-yl)-1,2,3,4-tetrahydronaphthalen-1-yloxy]phenyl}-N,N-dimethylacetamide], the inhibition at 10 µM fell in the range of 20 to 50%.

In the case of `COc1ccc(C)cc1O[C@H]1c2ccccc2CC[C@@H]1N1CCC[C@H](N)C1` (racemic) [Example 157, (S)-1-[rac-trans-(1,2)-1-(2-methoxy-5-methylphenoxy)-1,2,3,4-tetrahydronaphthalen-2-yl]piperidin-3-ylamine], the inhibition at 10 µM was 20 to 50%.

With `CS(=O)(=O)c1ccc(O[C@H]2c3ccccc3C[C@@H]2N2CCCC2)cc1Cl` (racemic) [Example 268, 1-[rac-trans-(1,2)-1-(3-chloro-4-methanesulfonylphenoxy)indan-2-yl]pyrrolidine], the inhibition at 10 µM was in the range of 20 to 50%.

For `N#Cc1ccc(CO[C@H]2c3cc(Cl)cc(Cl)c3C[C@@H]2N2CC[C@@H](O)C2)c(F)c1` [Example 482, 4-[(1S,2S)-4,6-dichloro-2-((R)-3-hydroxypyrrolidin-1-yl)indan-1-yloxymethyl]-3-fluorobenzonitrile], the inhibition at 10 µM is 20 to 50%.

As to `N#Cc1c(F)cccc1O[C@H]1c2ccccc2CC[C@@H]1N1CCC[C@@H](N)C1` (racemic) [Example 367, 2-[rac-trans-(1,2)-2-((R)-3-aminopiperidin-1-yl)-1,2,3,4-tetrahydronaphthalen-1-yloxy]-6-fluorobenzonitrile], the inhibition at 10 µM fell in the range of 20 to 50%.

With `N[C@H]1CCCN([C@H]2CCc3ccccc3[C@@H]2Oc2ccc(Cl)nc2)C1` (racemic) [Example 190, (S)-1-[rac-trans-(1,2)-1-(6-chloropyridin-3-yloxy)-1,2,3,4-tetrahydronaphthalen-2-yl]piperidin-3-ylamine], the inhibition at 10 µM is 20 to 50%.

As to `CCOc1cccc(O[C@@H]2c3ccccc3C[C@H]2N2CCC(CN)CC2)c1` (racemic) [Example 614, C-{1-[rac-trans-(1,2)-1-(3-ethoxyphenoxy)indan-2-yl]piperidin-4-yl}methylamine], the IC50 was 1000 to 10000 nM.

Take `Cc1c(O[C@H]2c3ccccc3C[C@@H]2N2CCCC2)ccc(-n2c(C)nnc2C)c1C` (racemic) [Example 488, 4-[2,3-dimethyl-4-(rac-trans-(1,2)-2-pyrrolidin-1-ylindan-1-yloxy)phenyl]-3,5-dimethyl-4H-[1,2,4]triazole]: the IC50 was under 1000 nM.

In the case of `CCN(CC)[C@@H]1Cc2ccccc2[C@H]1Oc1cccc(NC(N)=O)c1` (racemic) [Example 212, [3-(rac-trans-(1,2)-2-diethylaminoindan-1-yloxy)phenyl]-urea], the IC50 was 1000 to 10000 nM.

With `N#Cc1ccc(O[C@H]2c3cc(Cl)cc(Cl)c3C[C@@H]2N2CC[C@H](O)C2)c(F)c1` [Example 555, 4-[trans-(1S,2S)-4,6-dichloro-2-((S)-3-hydroxypyrrolidin-1-yl)indan-1-yloxy]-3-fluorobenzonitrile], the IC50 was 1000 to 10000 nM.

Consider `O=C1CNC(=O)N1c1ccc(O[C@H]2c3cc(Cl)cc(Cl)c3C[C@@H]2N2CC[C@@H](O)C2)cc1` [Example 426, 3-{4-[(1S,2S)-4,6-dichloro-2-((R)-3-hydroxypyrrolidin-1-yl)indan-1-yloxy]phenyl}imidazolidine-2,4-dione], for which the IC50 is under 1000 nM.

Regarding `N[C@@H]1CCCN([C@@H]2Cc3ccccc3[C@H]2Oc2cccc3[nH]ccc23)C1` (racemic) [Example 30, (R)-1-[rac-trans-(1,2)-1-(1H-indol-4-yloxy)indan-2-yl]piperidin-3-ylamine], the IC50 was 1000 to 10000 nM.

As for `CN(C1CCCNC1)[C@@H]1Cc2ccccc2[C@H]1Oc1cccc2[nH]ccc12` (mixture of isomers) [Example 214, [rac-trans-(1,2)-1-(1H-indol-4-yloxy)indan-2-yl]methylpiperidin-3-ylamine], the IC50 was 1000 to 10000 nM.
